The record followed here is US11612607B2, “Fenoldopam topical formulations for treating skin disorders” (TARO PHARMACEUTICAL INDUSTRIES LTD., priority 2016, dated 2023).

Where “and” joins values, the source holds several entries; their conditions need not be identical. Equal values may be shown once.

Series [1] in a line: Stability of fenoldopam in solution at different pH values (HPLC, UV detector 225 nm). The format is physicochemical. As for the experimental part: In order to evaluate the stability of fenoldopam in solutions maintained at various pHs above 4 and further solutions that were further adjusted back to an acidic pH, the following experiment was conducted. Fenoldopam mesylate was first dissolved in buffer phosphate at pH 2.5, in a concentration of 0.1 mg/mL (sample A). The solution was then divided into 5 samples:
Sample A: remains at pH 2.5
Sample B: pH was adjusted to pH 3.6 with NaOH.
Sample C: pH was adjusted to pH 6.6 with NaOH.
Sample D: pH was adjusted to pH 7.2 with NaOH.
Sample E: pH was adjusted to pH 9.3 with NaOH.
All samples were then analyzed by HPLC and UV detector at 225 nm. Table 1 represents the results obtained by the HPLC analysis conducted with the different fenoldopam samples.

Series [2] in a line: Fenoldopam stability in solutions at different pH after 72 hours (Mass spectrometry). The format is physicochemical. The protocol: FIGS. 1a-1e depict the effect of pH on fenoldopam stability. FIGS. 1a-e depict fenoldopam stability in solutions at different pH levels as determined by Mass Spectra (MS). Fenoldopam samples at a pH of 2.5 (FIG. 1a) and samples which were adjusted to a pH of 3.6 (FIG. 1b), 6.6 (FIG. 1c) and 7.2 (FIG. 1d) with NaOH were maintained for 72 hours, after which MS analysis was performed. FIG. 1e depicts the possible degradation products of fenoldopam obtained following exposure to a pH above 4.
Additional fenoldopam samples (Samples A3-D3) were maintained at a pH of 2.5, 3.6, 6.6 and 7.2 without adjustment back to pH 2.5 and were analyzed after 72 hours by HPLC at 225 nm and Mass spectrometry (MS).

Series [3] relates to IL-17. Kind of series: First animal study: IL-17 in skin homogenates (ELISA). The class given is in vivo, BALB/c mice. The source says: (§1) The effect of topical compositions on the treatment of psoriasis has been tested in two animal studies. In both studies, typical features of psoriasis, namely erythema, scaling, and skin thickness, were induced by the application of 5% w/w imiquimod (IMQ) cream on the dorsal skin of BALB/c mice over a period of 6 consecutive days. Animals that developed psoriasis-like symptoms were used for studying the efficacy of the fenoldopam topical compositions. In the fenoldopam-treated groups, the animals received imiquimod only for the first two days. From the third day of the study, the animals received imiquimod and fenoldopam for the next four days. First Animal Study: The different treatment groups of mice used in the first animal study were as following: the SHAM group in the study represents mice which were shaven on the dorsal side without any treatment; negative control group represents the typical psoriatic model induced by imiquimod 5% (IMQ); positive control group represents the mice induced with psoriasis by imiquimod and then treated with the marketed steroid betamethasone valerate (IMQ BMV); and treatment groups represent the mice induced with psoriasis by imiquimod and then treated with a topical dose of 1 mg/cm^2 fenoldopam using different compositions of fenoldopam, such as solution (IMQ FD), water-washable ointment (IMQ WB 45/55), or anhydrous gel (IMQ AG BHT) compositions.
(§2) An IMQ-induced psoriasis model reproduces biochemical and histopathological parameters characteristic of human psoriatic lesions. Topical application of the IMQ cream increased levels of cytokines such as IL-23, TNF-α, and IL-17 in the treated skin tissues. The skin homogenates obtained from mice of different groups were analyzed using ELISA for quantification of IL-17, IL-23, and TNF-α, levels as the selected interleukins are the typical inflammatory markers of psoriasis. […] The effect of fenoldopam was as effective as the reference topical treatment with the marketed steroid.

In series [4] the test system is IL-23. Kind of series: First animal study: IL-23 in skin homogenates (ELISA). The format is in vivo, BALB/c mice.
Excerpt: as §1, §2
Background: In an ELISA, binding on a coated surface is turned into a signal by an enzyme label.

Series [5] relates to TNF-α. Kind of series: First animal study: TNF-α in skin homogenates (ELISA). The format is in vivo, BALB/c mice.
Excerpt: as §1, §2

The test system of series [6] is IMQ-induced psoriasis model. The series can be described thus: Second animal study: IMQ-induced psoriasis, phenotype and PASI scoring. The format is in vivo, BALB/c mice.
Excerpt: as §1, with “In” for “The effect of topical compositions on the treatment of psoriasis has been tested in two animal studies. In”
(§3) The second animal study was conducted in order to test additional topical compositions of fenoldopam with different strengths (0.01%, 0.1% and 1% of fenoldopam), as well as the effect of systemic administration of fenoldopam. […]

Series [7] relates to IL-17. The series can be described thus: Second animal study: IL-17 in skin homogenates (ELISA). The class given is in vivo, BALB/c mice.
Excerpt: as §1, with “In” for “The effect of topical compositions on the treatment of psoriasis has been tested in two animal studies. In”
as §3
(§4) The skin homogenates obtained from mice of the different groups were analyzed using ELISA for quantification of IL-17, IL-23, TNF-α, and IL-22 levels, as the selected interleukins are the typical inflammatory markers of psoriasis.

Series [8] has as its system IL-23. The series can be described thus: Second animal study: IL-23 in skin homogenates (ELISA). The class given is in vivo, BALB/c mice.
Excerpt: as §1, with “In” for “The effect of topical compositions on the treatment of psoriasis has been tested in two animal studies. In”
The second animal study was conducted in order to test additional topical compositions of fenoldopam with different strengths (0.01%, 0.1% and 1% of fenoldopam), as well as the effect of systemic administration of fenoldopam. The different groups of mice used in the second animal study were as following: the SHAM group in the study represents mice which were shaven on the dorsal side without any treatment; negative control group represents the typical psoriatic model induced by imiquimod 5% (IMQ); positive control group represents the mice induced with psoriasis by imiquimod and then treated with the marketed steroid betamethasone valerate (IMQ BMV); and treatment groups represent the mice induced with psoriasis by imiquimod and then treated with a topical dose of various compositions of fenoldopam: water-washable base (IMQ_WB45/55-0.01%, IMQ_WB45/55-0.1%, IMQ_WB45/55-1% or IMQ_WB45/55_1% No citric acid), or oleaginous ointment composition (IMQ_OB 0.01%, IMQ_OB 0.1% or IMQ_OB […]). An additional group of mice received systemic Fenoldopam by intraperitoneal injection (IMQ_FD_IP).
as §4

Series [9] concerns TNF-α. The series can be described thus: Second animal study: TNF-α in skin homogenates (ELISA). The class given is in vivo, BALB/c mice.
Excerpt: as §1, with “In” for “The effect of topical compositions on the treatment of psoriasis has been tested in two animal studies. In”
as §3, §4

Series [10] relates to IL-22. The series can be described thus: Second animal study: IL-22 in skin homogenates (ELISA). The class given is in vivo, BALB/c mice.
Excerpt: as §1, with “In” for “The effect of topical compositions on the treatment of psoriasis has been tested in two animal studies. In”
as §3, §4

Regarding `Oc1ccc(C2CNCCc3c2cc(O)c(O)c3Cl)cc1` (centres unmarked) [Fenoldopam, 6-chloro-2,3,4,5-tetrahydro-1-(4-hydroxyphenyl)-[1H]-3-benzazepine-7,8-diol, methane sulfonate], the “RRT-0.9 (%)” value in series [1] (Sample B1: pH 3.6 for 12 hours, then back to pH 2.5 for additional 5 hours) was found to be 0.9%; in [1] (Sample B2: pH 3.6 for 12 hours, then back to pH 2.5 for additional 48 hours) it was 0.9%; in series [1] (Sample B3: pH 3.6 for 72 hours without adjustment back to pH 2.5), 1.0%; in [1] (Sample B: pH 3.6 for 12 hours, 0.1 mg/mL, room temperature, protected from light), 0.9%; in series [1] (Sample C1: pH 6.6 for 12 hours, then back to pH 2.5 for additional 5 hours) it was 4.0%; in series [1] (Sample C2: pH 6.6 for 12 hours, then back to pH 2.5 for additional 48 hours), 4.0%. In addition, the “RRT-0.9 (%)” value in series [1] (Sample C3: pH 6.6 for 72 hours without adjustment back to pH 2.5) is recorded as 17.5%; in [1] (Sample C: pH 6.6 for 12 hours), 4.9%; in [1] (Sample D1: pH 7.2 for 12 hours, then pH 2.5 for additional 5 hours) it was 11.6%; in series [1] (Sample D2: pH 7.2 for 12 hours, then back to pH 2.5 for additional 48 hours) it was 11.5%; in series [1] (Sample D3: pH 7.2 for 72 hours without adjustment back to pH 2.5), 49.8%; in series [1] (Sample D: pH 7.2 for 12 hours) it was 15.8%. The results for the fenoldopam degraded in series [1] (Sample C3: 72 hours at pH 6.6) and in [1] (Sample D3: 72 hours at pH 7.2) were 18% and 50%, respectively. For the same compound, the “Fenoldopam, (%)” value is 2% in [1] (Sample E1: pH 9.3 for 12 hours, then pH 2.5 for additional 5 hours); 2.2% in series [1] (Sample E2: pH 9.3 for 12 hours, then pH 2.5 for additional 48 hours); “No main peak” in [1] (Sample E3: pH 9.3 for 72 hours without adjustment back to pH 2.5); “No main peak” in series [1] (Sample E: pH 9.3 for 12 hours). Besides, the RRT-0.9 impurity result was “less than 1%” in series [1] (Samples B, B1, B2 (12 hours at pH 3.6, then pH 2.5) and B3 (72 hours at pH 3.6)); 4% in [1] (Samples C, C1 and C2 (12 hours at pH 6.6 followed by adjustment back to pH 2.5)). The “minor peak of fenoldopam” value in [1] (Samples E, E1, E2 and E3 (pH 9.3)) was about 2%. In addition, the Appearance of solution entry is reported as “pH 3.6 - Clear” in series [1] (pH 3.6), “pH 6.6 - yellowish” in [1] (pH 6.6), “pH 7.2 - yellowish” in series [1] (pH 7.2) and “pH 9.3- yellowish” in [1] (pH 9.3). Also, the “Stability by MS analysis” value in [2] (pH of 2.5 and 3.6, after 3 days) was “stable after 3 days and showed a single peak”; in [2] (pH of 6.6 and 7.2, after 3 days) it was “formation of several peaks after 3 days”. The “Level of IL-17” value in [3] (vs. IMQ group) was “inhibited”. In addition, the “Level of IL-23” value in series [4] (vs. IMQ group) was “inhibited”. For the same compound, the “Level of TNF-α” value in series [5] (vs. IMQ group) is “inhibited”.

`CC(C)Cn1cnc2c(N)nc3ccccc3c21` [IMQ, imiquimod]: in [3] (first animal study), the “Elevation of IL-17 levels compared to the SHAM group” value was determined as 5 fold. Besides, in series [4] (first animal study), the “Increase of IL-23 levels compared to SHAM group” value amounted to 2.30 fold. Also, the “Increase in the TNF-α level compared to the SHAM group” value in series [5] (first animal study) is recorded as 8.42 fold. Further, in [6], the “PASI score for erythema, scaling, and thickness on the 6th day” value is listed as “about 3”. Further, in series [7], the “Fold difference in IL-17 levels (↑, vs. Sham)” value is 1.63 fold and 1.63 ↑ fold. The “Fold difference in IL-23 levels (↑, vs. Sham)” value in series [8] was 1.55 fold and 1.55 ↑ fold. Further, the “Fold difference in TNF-α levels (↑, vs. Sham)” value in [9] was 2.08 fold and 2.08 ↑ fold. Also, the “Fold difference in IL-22 levels (↑, vs. Sham)” value in series [10] is 1.36 fold and 1.36 ↑ fold.
